pEC50: −log10 of the molar value.
target: TLR2 (Homo sapiens, UniProt O60603); test: TLR2 agonist screening assay, HEK-Blue TLR2 reporter cell line (NF-kB-driven SEAP, absorbance at 600 nm); type: cell-based; set-up: host or cells: HEK-293 (HEK-Blue TLR2 reporter cell line); settings: HEK-Blue TLR2 reporter cells, agonist mode; average of all runs (Table 3)
Summary of the method: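 HEK-293 cells expressing TLR2 with NF-kB-driven SEAP were plated at 40,000 per well. After 16-24 h, they were treated overnight with diluted agonists in detection medium (1% DMSO final). Absorbance at 600 nm was read, and EC50 values were fitted.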

Sequence of TLR2 (O60603 21-784): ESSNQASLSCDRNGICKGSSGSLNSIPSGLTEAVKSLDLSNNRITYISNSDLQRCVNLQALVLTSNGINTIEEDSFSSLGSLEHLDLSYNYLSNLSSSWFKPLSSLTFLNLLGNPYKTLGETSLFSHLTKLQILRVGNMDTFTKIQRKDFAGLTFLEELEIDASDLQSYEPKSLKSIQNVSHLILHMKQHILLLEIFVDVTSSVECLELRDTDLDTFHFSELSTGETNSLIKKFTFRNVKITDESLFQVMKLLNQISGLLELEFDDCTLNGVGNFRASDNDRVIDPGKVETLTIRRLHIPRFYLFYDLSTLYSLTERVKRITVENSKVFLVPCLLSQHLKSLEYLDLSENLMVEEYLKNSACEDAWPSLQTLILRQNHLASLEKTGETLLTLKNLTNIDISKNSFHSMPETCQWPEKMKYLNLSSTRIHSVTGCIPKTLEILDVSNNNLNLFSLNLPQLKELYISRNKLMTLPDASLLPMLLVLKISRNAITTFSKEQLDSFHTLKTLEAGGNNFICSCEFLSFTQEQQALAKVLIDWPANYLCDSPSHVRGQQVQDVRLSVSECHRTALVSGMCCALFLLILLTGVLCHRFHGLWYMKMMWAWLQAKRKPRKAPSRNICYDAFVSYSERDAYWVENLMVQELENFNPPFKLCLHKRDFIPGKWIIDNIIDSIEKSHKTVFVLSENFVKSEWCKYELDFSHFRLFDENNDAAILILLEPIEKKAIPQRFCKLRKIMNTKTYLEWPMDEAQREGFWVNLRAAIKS

Row | Structure (SMILES) | pEC50
1 | CCCCCCCS(=O)(=O)N1CCN(C(=O)c2ccc(C(=O)N3C[C@@H](C(=O)N[C@H]4C[C@@H]4c4ccccc4)[C@H](C(=O)N[C@H]4C[C@@H]4c4ccccc4)C3)cc2)CC1C(=O)NCCCCCC (stereo partly shown) [Compound 047] | < 6.00
2 | CCCCCCCNC(=O)C1CN(C(=O)c2ccc(C(=O)N3C[C@@H](C(=O)N[C@H]4C[C@@H]4c4ccccc4)[C@H](C(=O)N[C@H]4C[C@@H]4c4ccccc4)C3)cc2)CCN1C(=O)CCCCCCC (stereo partly shown) [Compound 058] | 6.46 to 7.29
3 | CCCCCCNC(=O)[C@@H]1C[C@@H](C(=O)NCCCCCC)CN(C(=O)c2ccc(C(=O)N3C[C@@H](C(=O)N[C@H]4C[C@@H]4c4ccccc4)[C@H](C(=O)N[C@H]4C[C@@H]4c4ccccc4)C3)cc2)C1 [Compound 043] | < 6.00
4 | CCCCCCCO[C@H]1CN(C(=O)c2ccc(C(=O)N3C[C@@H](C(=O)N[C@H]4C[C@@H]4c4ccccc4)[C@H](C(=O)N[C@H]4C[C@@H]4c4ccccc4)C3)cc2)C[C@H]1C(=O)NCCCCCC (single isomer, unassigned) [Compound 073, (3S,4S)-1-(4-((3R*,4R*)-3-(heptyloxy)-4-(hexylcarbamoyl)pyrrolidine-1-carbonyl)benzoyl)-N3,N4-bis((1S,2R)-2-phenylcyclopropyl)pyrrolidine-3,4-dicarboxamide] | 6.00 to 6.45
5 | CCCCCCNC(=O)[C@@H]1CN(C(=O)c2ccc(C(=O)N3C[C@@H](C(=O)N[C@H]4C[C@@H]4c4ccccc4)[C@H](C(=O)N[C@H]4C[C@@H]4c4ccccc4)C3)cc2)C[C@H]1NC(=O)CCCCCC [Compound 039] | < 6.00
6 | CCCCCCCCCCNC(=O)C1CN(C(=O)c2ccc(C(=O)N3C[C@@H](C(=O)N[C@H]4C[C@@H]4c4ccccc4)[C@H](C(=O)N[C@H]4C[C@@H]4c4ccccc4)C3)cc2)CCN1C(=O)CCCCCCC (stereo partly drawn) [Compound 066, (3S,4S)-1-(4-(3-(decylcarbamoyl)-4-octanoylpiperazine-1-carbonyl)benzoyl)-N3,N4-bis((1S,2R)-2-phenylcyclopropyl)pyrrolidine-3,4-dicarboxamide] | 6.46 to 7.29
7 | CCCCCCCCCCCCCCC(=O)NC(C)(C)CNC(=O)c1ccc(C(=O)N2C[C@@H](C(=O)N[C@H]3C[C@@H]3c3ccccc3)[C@H](C(=O)N[C@H]3C[C@@H]3c3ccccc3)C2)cc1 [Compound 012] | < 6.00

same assay, conditions: HEK-Blue TLR2 reporter cells, agonist mode; average of all runs (Table 4)

Row | Structure (SMILES) | pEC50
8 | CCCCCCNC(=O)[C@@H](CCNC(=O)c1ccc(C(=O)N2C[C@@H](C(=O)N[C@H]3C[C@@H]3c3ccccc3)[C@H](C(=O)N[C@H]3C[C@@H]3c3ccccc3)C2)cc1)NC(=O)CCCCCC [Compound 120, (3S,4S)-1-(4-(((R)-3-heptanamido-4-(hexylamino)-4-oxobutyl)carbamoyl)benzoyl)-N3,N4-bis((1S,2R)-2-phenylcyclopropyl)pyrrolidine-3,4-dicarboxamide] | < 6.00
9 | CCCCCCCCCCCCCCNC(=O)[C@@H]1CN(C(=O)c2ccc(C(=O)N3C[C@@H](C(=O)N[C@H]4C[C@@H]4c4ccccc4)[C@H](C(=O)N[C@H]4C[C@@H]4c4ccccc4)C3)cc2)C[C@H]1N(C)[C@H](C)c1ccccc1 [Compound 090, (3S,4S)-1-(4-((3S,4R)-3-(methyl((R)-1-phenylethyl)amino)-4-(tetradecylcarbamoyl)pyrrolidine-1-carbonyl)benzoyl)-N3,N4-bis((1S,2R)-2-phenylcyclopropyl)pyrrolidine-3,4-dicarboxamide] | < 6.00
10 | O=C(N[C@H]1C[C@@H]1c1ccccc1)[C@@H]1CN(C(=O)C23CCC(C(=O)N4C[C@@H](C(=O)N[C@H]5C[C@@H]5c5ccccc5)[C@H](C(=O)N[C@H]5C[C@@H]5c5ccccc5)C4)(C2)C3)C[C@H]1C(=O)N[C@H]1C[C@@H]1c1ccccc1 [Compound 144, (3S,3'S,4S,4'S)-1,1′-(bicyclo[2.1.1]hexane-1,4-dicarbonyl)bis(N3,N4-bis((1S,2R)-2-phenylcyclopropyl)pyrrolidine-3,4-dicarboxamide)] | 6.00 to 6.45
11 | CCCCCCCCCCCCCNC(=O)N[C@H]1CN(c2ncc(-c3ccc(C(=O)N4C[C@@H](C(=O)N[C@H]5C[C@@H]5c5ccccc5)[C@H](C(=O)N[C@H]5C[C@@H]5c5ccccc5)C4)cc3)s2)C[C@@H]1OC [Compound 244, (3S,4S)-1-(4-(2-((3S,4S)-3-methoxy-4-(3-tridecylureido)pyrrolidin-1-yl)thiazol-5-yl)benzoyl)-N3,N4-bis((1S,2R)-2-phenylcyclopropyl)pyrrolidine-3,4-dicarboxamide] | 6.00 to 6.45
12 | CCCCCCCCCCCCCCCN1C[C@H](NC(=O)c2ccc(C(=O)N3C[C@@H](C(=O)N[C@H]4C[C@@H]4c4ccccc4)[C@H](C(=O)N[C@H]4C[C@@H]4c4ccccc4)C3)cc2)CCC1=O [Compound 169, (3S,4S)-1-(4-(((R)-6-oxo-1-pentadecylpiperidin-3-yl)carbamoyl)benzoyl)-N3,N4-bis((1S,2R)-2-phenylcyclopropyl)pyrrolidine-3,4-dicarboxamide] | < 6.00
13 | O=C(N[C@H]1C[C@@H]1c1ccccc1)[C@@H]1CN(C(=O)c2ccc(C(=O)N3C[C@@H](C(=O)N[C@H]4C[C@@H]4c4ccccc4)[C@H](C(=O)N[C@@H]4C[C@H]4c4cccnc4)C3)cc2)C[C@H]1C(=O)N[C@H]1C[C@@H]1c1ccccc1 (single isomer, unassigned) [Compound 097, (3S,4S)—N3-((1S)-2-phenylcyclopropyl)-N4-(2-phenylcyclopropyl)-1-(4-((3S,4S)-3-(((1S,2R)-2-phenylcyclopropyl)carbamoyl)-4-(((1S*,2R*)-2-(pyridin-3-yl)cyclopropyl)carbamoyl)pyrrolidine-1-carbonyl)benzoyl)pyrrolidine-3,4-dicarboxamide] | 6.46 to 7.29
14 | CCCCCCCCCCCCCCC(=O)N[C@H]1CN(C(=O)c2ccc(C(=O)N3C[C@@H](C(=O)N[C@H]4C[C@@H]4c4ccccc4)[C@H](C(=O)N[C@H]4C[C@@H]4c4ccccc4)C3)cc2)C[C@H]1OC [Compound 236, (3S,4S)-1-(4-((3R,4S)-3-methoxy-4-pentadecanamidopyrrolidine-1-carbonyl)benzoyl)-N3,N4-bis ((1S,2R)-2-phenylcyclopropyl) pyrrolidine-3,4-dicarboxamide] | 7.30 to 10.00
15 | CCCCCCNC(=O)[C@H](CN[C@@H](c1ccc(C(=O)N2C[C@@H](C(=O)N[C@H]3C[C@@H]3c3ccccc3)[C@H](C(=O)N[C@H]3C[C@@H]3c3ccccc3)C2)cc1)C(F)(F)F)NC(=O)CCCCCC (single isomer, unassigned) [Compound 148] | 6.00 to 6.45

More lines, now with the values ahead:

Row | pEC50 | Structure (SMILES)
16 | < 6.00 | CCCCCCCCCCCCCCC(=O)N[C@H]1CCCN(C(=O)c2ccc(C(=O)N3C[C@@H](C(=O)N[C@H]4C[C@@H]4c4ccccc4)[C@H](C(=O)N[C@H]4C[C@@H]4c4ccccc4)C3)cc2)C1 [Compound 124, (3S,4S)-1-(4-((S)-3-pentadecanamidopiperidine-1-carbonyl)benzoyl)-N3,N4-bis((1S,2R)-2-phenylcyclopropyl)pyrrolidine-3,4-dicarboxamide]
17 | < 6.00 | CCCCCCCCCCCCCCNC(=O)[C@H]1CN(C(=O)c2cccc(C(=O)N3C[C@@H](C(=O)N[C@H]4C[C@@H]4c4ccccc4)[C@H](C(=O)N[C@H]4C[C@@H]4c4ccccc4)C3)c2)CCN1C(C)=O [Compound 172, (3S,4S)-1-(3-((R)-4-acetyl-3-(tetradecylcarbamoyl)piperazine-1-carbonyl)benzoyl)-N3,N4-bis((1S,2R)-2-phenylcyclopropyl)pyrrolidine-3,4-dicarboxamide]
18 | < 6.00 | CCCCCCNC(=O)C[C@@H](NC(=O)c1ccc(C(=O)N2C[C@@H](C(=O)N[C@H]3C[C@@H]3c3ccccc3)[C@H](C(=O)N[C@H]3C[C@@H]3c3ccccc3)C2)cc1)C(=O)NCCCCCC [Compound 117, (3S,4S)-1-(4-(((R)-1,4-bis(hexylamino)-1,4-dioxobutan-2-yl)carbamoyl)benzoyl)-N3,N4-bis((1S,2R)-2-phenylcyclopropyl) pyrrolidine-3,4-dicarboxamide]
19 | < 6.00 | CCCCCCCO[C@H]1CN(C(=O)c2ccc(C(=O)N3C[C@@H](C(=O)N[C@H]4C[C@@H]4c4ccccc4)[C@H](C(=O)N[C@H]4C[C@@H]4c4ccccc4)C3)cc2)C[C@H]1C(=O)NCCCCCC (single isomer, unassigned) [Compound 115, (3S,4S)-1-(4-((3R*,4R*)-3-(heptyloxy)-4-(hexylcarbamoyl)pyrrolidine-1-carbonyl)benzoyl)-N3,N4-bis((1S,2R)-2-phenylcyclopropyl)pyrrolidine-3,4-dicarboxamide]
20 | < 6.00 | CCCCCCCCCCCCCCNC(=O)C1CC(=O)N(Cc2ccc(C(=O)N3C[C@@H](C(=O)N[C@H]4C[C@@H]4c4ccccc4)[C@H](C(=O)N[C@H]4C[C@@H]4c4ccccc4)C3)cc2)C1 (stereo partly drawn) [Compound 100, (3S,4S)-1-(4-((2-oxo-4-(tetradecylcarbamoyl)pyrrolidin-1-yl)methyl)benzoyl)-N3,N4-bis((1S,2R)-2-phenylcyclopropyl)pyrrolidine-3,4-dicarboxamide]
21 | 6.46 to 7.29 | CCCCCCC(=O)N[C@@H](CNC(=O)c1ccc(C(=O)N2C[C@@H](C(=O)N[C@H]3C[C@@H]3c3ccccc3)[C@H](C(=O)N[C@H]3C[C@@H]3c3ccccc3)C2)cc1)C(=O)N[C@H]1C[C@@H]1c1ccccc1 [Compound 143, (3S,4S)-1-(4-(((S)-2-heptanamido-3-oxo-3-(((1S,2R)-2-phenylcyclopropyl)amino)propyl)carbamoyl)benzoyl)-N3,N4-bis((1S,2R)-2-phenylcyclopropyl)pyrrolidine-3,4-dicarboxamide]
22 | < 6.00 | CCCCCCCCCCCCCCNC(=O)[C@@H]1CN(C(=O)c2ccc(C(=O)N3C[C@@H](C(=O)N[C@H]4C[C@@H]4c4ccccc4)[C@H](C(=O)N[C@H]4C[C@@H]4c4ccccc4)C3)cc2)C[C@H]1N(C)C [Compound 091, (3S,4S)-1-(4-((3S,4R)-3-(dimethylamino)-4-(tetradecylcarbamoyl)pyrrolidine-1-carbonyl)benzoyl)-N3,N4-bis((1S,2R)-2-phenylcyclopropyl)pyrrolidine-3,4-dicarboxamide]

Source: patent US11951094B2, “TLR2 modulator compounds, pharmaceutical compositions and uses thereof” (Axial Therapeutics, Inc., priority 2020, dated 2024)
